These results are taken from article PMC10776879, “In vitro screening of topical formulation excipients for epithelial toxicity in cancerous and non-cancerous cell lines” (EXCLI Journal, 2023).

Each structure is given as a SMILES string. ≈ marks a conversion by molar mass, not a printed value.

Series [1] concerns human cervical cancer (HeLa) cells. Set-up: method as in Ujhelyi et al., 2012[89], 2015[90]. The settings on record: HeLa cell line; ref Ujhelyi et al., 2012[89], 2015[90]; cited from earlier work.
Series [2] relates to human cell lines (WM164, WM1366, D24, HaCaT, FB). The series is described as follows: MTT and CV cytotoxicity, statements over all tested cell lines. In kind it is cell-based. Here is the method: (§1) Cells were seeded into the 96-well cell culture plates in 100 μl of complete culture medium at the initial density of 2x10^4 (cells/ml). Cells were incubated under 5 % CO2 at 37 °C for 24 hours for adhering to the wells and medium was then replaced with 100 μl of fresh medium containing excipient solution at the required final concentration. Each concentration was tested in minimum of 5 replicates and control cells were exposed to the culture medium only.
(§2) After cell incubation for 24 h, the excipient-containing medium was removed, and 100 μl of MTT in PBS (5 mg/ml) diluted 1:10 in medium was then added in the dark. Plates were further incubated for 2-3 h, after which time the medium was removed and the purple formazan product was dissolved by adding 200 μl of DMSO to each well. Plates were then placed in a shaker for 5 min at room temperature and the absorbance of the resulting solutions was measured at 570 nm using a microplate reader (Multiskan™ FC Microplate Photometer). The effect of each treatment was calculated as the percentage of tetrazolium salt reduction by viable cells against the negative control (cells treated with culture medium only).
Fixed cells were stained with crystal violet dye solution to screen cell viability under treatment conditions. Cells are fixed by 4 % (v/v) paraformaldehyde in PBS for 10 minutes. Crystal violet assay of 0.05 % (v/v) is prepared by 1:4 dilution of the crystal violet stock solution (v/v) in 4 % (v/v) paraformaldehyde. The fixed cells were washed twice with PBS and covered with 250 µl crystal violet working solution. The plates were placed on a bench rocker with medium frequency (20 oscillations per minute) at room temperature for 20 minutes. The plates were emptied and washed under indirect stream of tap water for three times and inverted on filter paper. The plates were taped gently on the paper to remove any remaining liquid and air dried with no lid for minimum of 2 hr at room temperature. After the plates were photographed, blue dye was dissolved in DMSO and the optical density of each well was measured at 570 nm (OD570) with a plate reader (Multiskan™ FC Microplate Photometer). The effect of each treatment was calculated as the percentage of crystal viable staining of surviving attached cells, against the negative control (cells treated with culture medium only).
(§3) To assess the excipients' cytotoxicity, the dose-response effect of each excipient was measured against the cell lines. The cytotoxicity value for each concentration of the excipients was expressed as percentage of viability against the untreated control wells (the optical density of untreated cells was set at 100 % viability) to construct dose-response curves.
The cytotoxicity of the excipients was expressed in terms of an IC50 values (concentration causing 50 % death of the cell population) (Goldberg and Frazier, 1989[37]). […] All IC50 values were expressed as µg/ml. The percentage viability was calculated as follows: […]

The subject of series [3] is primary skin fibroblasts (FB). Kind of series: MTT cell viability assay. In kind it is cell-based, human. The settings on record: Homo sapiens, Skin fibroblast, 24 h exposure, read-out: IC50 (μg/ml) [Mean, Range] FB, MTT. Here is the method: as §1, §2, §3
(§4) All IC50 values were expressed as µg/ml. The percentage viability was calculated as follows: […]
(Tetrazolium assays rely on reduction of a dye to a coloured formazan, in cell work by metabolically active cells.)

In series [4] the test system is primary skin fibroblasts (FB). The series is described as follows: Reactive Oxygen Species evaluation with dihydrorhodamine 123. In kind it is cell-based, human. The settings on record: greatest applied concentration, 24 h. As for the experimental part:
The oxidant-sensitive dye, dihydrorhodamine 123 (DHR), was used to detect intracellular ROS level. Cells were plated in the flat bottom 96-well plates to sub confluent (60-70 %) then the medium was removed and replaced with the pre-warmed treatment solutions (medium containing different concentration of the excipients). After 24 hours incubation with treatment solutions, medium was removed and replaced with the 100 μl of pre-warmed dying buffer (Hank's balanced salt solution (HBSS) containing 12 µM DHR dye). Cells were incubated for 30 minutes at 37 °C in a humidified 5 % CO2 atmosphere in dark. The cellular fluorescence generated by the DHR oxidation was measured at 485 nm (OD 485) using a microplate reader (Multiskan™ FC Microplate Photometer). […] Data points were recorded every 10 minutes for 60 minutes and exported for analysis by Excel software. The ROS level is calculated as the difference between (Ftest/ Fcontrol) and expressed as percentages of the control value using this formulation: […]
(§5) where Ftest and Fcontrol are the fluorescence intensities of the cells exposed to the treatments and the cells with only medium, respectively. Fluorescence intensity of the blank wells were measured at every measurement time points and recorded to compare with the control wells.

For series [5] the following is noted: Table 1, physicochemical information of the excipients, source not given; cited from earlier work.
Series [6] relates to HaCaT human keratinocytes. The series is described as follows: Reactive Oxygen Species evaluation with dihydrorhodamine 123. In kind it is cell-based. The settings on record: greatest applied concentration, 24 h. As for the experimental part:
(§6) The oxidant-sensitive dye, dihydrorhodamine 123 (DHR), was used to detect intracellular ROS level. Cells were plated in the flat bottom 96-well plates to sub confluent (60-70 %) then the medium was removed and replaced with the pre-warmed treatment solutions (medium containing different concentration of the excipients). After 24 hours incubation with treatment solutions, medium was removed and replaced with the 100 μl of pre-warmed dying buffer (Hank's balanced salt solution (HBSS) containing 12 µM DHR dye). Cells were incubated for 30 minutes at 37 °C in a humidified 5 % CO2 atmosphere in dark. The cellular fluorescence generated by the DHR oxidation was measured at 485 nm (OD 485) using a microplate reader (Multiskan™ FC Microplate Photometer). Hydrogen peroxide (H2O2) treatment (800, 400, 200, and 100 µM)/ (27, 13.5, 6.75, 3.4 µg/ml) was used as positive control and dying buffer with no cells as blank control. Data points were recorded every 10 minutes for 60 minutes and exported for analysis by Excel software. The ROS level is calculated as the difference between (Ftest/ Fcontrol) and expressed as percentages of the control value using this formulation: […]
as §5

Series [7] has as its system WM1366 human melanoma cells. The series is described as above. In kind it is cell-based. Conditions: greatest applied concentration, 24 h. Here is the method: as §6, §5
In series [8] the test system is WM164 human melanoma cells. The series is described as above. In kind it is cell-based. The settings on record: greatest applied concentration, 24 h. As for the experimental part: as §6, §5
For series [9], the system named is D24 human melanoma cells. The series is described as above. In kind it is cell-based. The settings on record: greatest applied concentration, 24 h. As for the experimental part: as §6, §5
The subject of series [10] is HaCaT human keratinocytes. The series is described as follows: MTT cell viability assay. The settings on record: Homo sapiens, 24 h exposure, read-out: IC50 (μg/ml) [Mean, Range] HaCaT, MTT. In kind it is cell-based. As for the experimental part:
as §1, §2, §3, §4

Series [11] has as its system WM1366 human melanoma cells. The series is described as follows: MTT cell viability assay. In kind it is cell-based. The settings on record: Homo sapiens, 24 h exposure, read-out: IC50 (μg/ml) [Mean, Range] WM1366, MTT. Here is the method: as §1, §2, §3, §4
Series [12] concerns WM164 human melanoma cells. Kind of series: MTT cell viability assay. The settings on record: Homo sapiens, 24 h exposure, read-out: IC50 (μg/ml) [Mean, Range] WM164, MTT. In kind it is cell-based. Here is the method:
as §1, §2, §3, §4

In series [13] the test system is D24 human melanoma cells. The series is described as follows: MTT cell viability assay. In kind it is cell-based. The settings on record: Homo sapiens, 24 h exposure, read-out: IC50 (μg/ml) [Mean, Range] D24, MTT. Here is the method:
as §1, §2, §3, §4

With `CCOCCOCCO` [Transcutol®, diethylene glycol monoethyl ether], in series [1], the “IC50, MTT endpoint” value is 34 µg/mL (≈ 253 µM). Moreover, the IC50 in series [2] (Homo sapiens, over the tested cell lines, this study, read-out: IC50) is 2 to 5.5 µg/mL (≈ 14.9 to 41 µM); in series [3], 5.54 µg/mL (≈ 41.3 µM); in series [10], 3.32 µg/mL (≈ 24.7 µM); in series [11], 3.49 µg/mL (≈ 26 µM); in series [12], 2.12 µg/mL (≈ 15.8 µM); in the series with D24 human melanoma cells [13], 4.88 µg/mL (≈ 36.4 µM). The same compound displayed an Irritancy ranking in series [2] (rank by MTT and CV IC50 over all cell lines, 1 = most cytotoxic) of 4. Besides, the “ROS production increase vs untreated control” value in series [4] turned out to be 4.3%; in series [6] it was 29.4%; in series [7], 18.1%; in [8], 22.5%; in the series with D24 human melanoma cells [9], 24.9%. Moreover, the HLB in series [5] is 4.
